# Source: patent publication US10501438B2, “Aryl-substituted dihydroquinolinones, their preparation and their use as pharmaceuticals” (NEOMED Institute, priority 2015, dated 2019)
# pIC50: −log10 of the molar value.
# System: human C-Myc transcription in MV-4-11 cells
# Assay: Transcription of human C-Myc in human leukemic MV-4-11 cells (QuantiGene 2.0)
# Type: cell-based
# Settings: Homo sapiens, MV4-11, 4 h, inhibition of C-Myc mRNA, 4 hours treatment
# Method: b) Transcription of Human C-Myc in Human Leukemic MV-4-11 Cells:
# The effect of compounds on transcription of human C-Myc gene is monitored in human B-myelomonocytic leukemia cell line MV-4-11 (from American Type Culture Collection (ATCC), Manassas, Va., USA) using QuantiGene 2.0 assay kit (Affymetrix, Santa Clara, Calif., USA).
# Typically, 8,000 MV-4-11 cells are plated in sterile 96-well plates (Costar #3598 from Fisher Scientific Canada, Ottawa, Ontario, Canada) in Iscove's medium supplemented with 10% fetal bovine serum, glutamine (2 mM), and penicillin (100 I.U.) and streptomycin (100 μg/mL) (all from Wisent Inc., St. Bruno, Quebec, Canada). Compounds are dissolved in DMSO at 30 mM. A series of 1:3 dilutions are first made in DMSO, and further 1:100 dilutions are made in serum-containing cell culture media. The final concentration of DMSO is 0.1% in cell culture media. After cells are treated with various concentrations of test compound for 4 hours, cells are lysed using Quantigene 2.0 sample processing kit (#QS0100). C-Myc mRNA is detected using a QuantiGene 2.0 assay kit (#QS0009) with gene-specific probe to human C-Myc (#SA-50182) following the manufacturer's recommendations. Luminescene signals are read on Flexstation II microplate reader (Molecular Devices, Sunnyvale, Calif., USA).
row,pIC50,Compound
1,6.60,"Cc1cc(-c2cc3c(c(N(C)Cc4ccccc4)c2)NC(=O)CC3)cn(C)c1=O [Compound 5, 8-[benzyl(methyl)amino]-6-(1,5-dimethyl-6-oxo-3-pyridyl)-3,4-dihydro-1H-quinolin-2-one]"
2,5.58,"Cc1cc(-c2cc3c(c(Oc4ccccc4)c2)NC(=O)CC3)cn(C)c1=O [Compound 15, 6-(1,5-dimethyl-6-oxo-1,6-dihydropyridin-3-yl)-8-phenoxy-3,4-dihydroquinolin-2(1H)-one]"
3,6.28,"Cc1cc(-c2cc3c(c(OC4CCCCC4)c2)NC(=O)CC3)cn(C)c1=O [Compound 16, 8-(cyclohexyloxy)-6-(1,5-dimethyl-6-oxo-1,6-dihydropyridin-3-yl)-3,4-dihydroquinolin-2(1H)-one]"
4,6.10,"Cc1cc(-c2cc3c(c(OCC4CCC4)c2)NC(=O)CC3)cn(C)c1=O [Compound 20, 8-(cyclobutylmethoxy)-6-(1,5-dimethyl-6-oxo-1,6-dihydropyridin-3-yl)-3,4-dihydroquinolin-2(1H)-one]"
5,6.62,"Cc1cc(-c2cc3c(c(NC(C)c4ccccn4)c2)NC(=O)CC3)cn(C)c1=O (stereo not drawn) [Compound 22, 6-(1,5-dimethyl-6-oxo-3-pyridyl)-8-[1-(2-pyridyl)ethylamino]-3,4-dihydro-1H-quinolin-2-one]"
6,6.08,"Cc1cc(-c2cc3c(c(CNC4CCCCC4)c2)NC(=O)CC3)cn(C)c1=O [Compound 24, 8-[(cyclohexylamino)methyl]-6-(1,5-dimethyl-6-oxo-3-pyridyl)-3,4-dihydro-1H-quinolin-2-one]"
7,6.82,"Cc1cc(-c2cc3c(c(OCc4cccnc4)c2)NC(=O)CC3)cn(C)c1=O [Compound 25, 6-(1,5-dimethyl-6-oxo-1,6-dihydropyridin-3-yl)-8-(pyridin-3-ylmethoxy)-3,4-dihydroquinolin-2(1H)-one]"
8,6.55,"Cc1cc(-c2cc3c(c(OCc4ccccn4)c2)NC(=O)CC3)cn(C)c1=O [Compound 26, 6-(1,5-dimethyl-6-oxo-1,6-dihydropyridin-3-yl)-8-(pyridin-2-ylmethoxy)-3,4-dihydroquinolin-2(1H)-one]"
9,6.82,"Cc1cc(-c2cc3c(c(COC4CCCCC4)c2)NC(=O)CC3)cn(C)c1=O [Compound 27, 8-(cyclohexoxymethyl)-6-(1,5-dimethyl-6-oxo-3-pyridyl)-3,4-dihydro-1H-quinolin-2-one]"
10,6.38,"Cc1cc(-c2cc3c(c(NCc4ccncc4)c2)NC(=O)CC3)cn(C)c1=O [Compound 28, 6-(1,5-dimethyl-6-oxo-3-pyridyl)-8-(4-pyridylmethylamino)-3,4-dihydro-1H-quinolin-2-one]"
11,6.72,"Cc1cc(-c2cc3c(c(OCC4CCCC4)c2)NC(=O)CC3)cn(C)c1=O [Compound 29, 8-(cyclopentylmethoxy)-6-(1,5-dimethyl-6-oxo-1,6-dihydropyridin-3-yl)-3,4-dihydroquinolin-2(1H)-one]"
12,6.60,"Cc1cc(-c2ccc3c(c2Cc2ccccc2)NC(=O)CC3)cn(C)c1=O [Compound 30, 8-benzyl-7-(1,5-dimethyl-6-oxo-1,6-dihydropyridin-3-yl)-3,4-dihydroquinolin-2(1H)-one]"
13,6.54,"Cc1cc(-c2cc3c(cc2Cc2ccccc2)CCC(=O)N3)cn(C)c1=O [Compound 31, 6-benzyl-7-(1,5-dimethyl-6-oxo-1,6-dihydropyridin-3-yl)-3,4-dihydroquinolin-2(1H)-one]"
14,5.65,"Cc1cc(-c2cc3c(cc2Cc2ccccn2)CCC(=O)N3)cn(C)c1=O [Compound 32, 7-(1,5-dimethyl-6-oxo-1,6-dihydropyridin-3-yl)-6-(pyridin-2-ylmethyl)-3,4-dihydroquinolin-2(1H)-one]"
15,5.55,"Cc1cc(-c2cc3c(cc2COC2CCCC2)CCC(=O)N3)cn(C)c1=O [Compound 34, 6-((cyclopentyloxy)methyl)-7-(1,5-dimethyl-6-oxo-1,6-dihydropyridin-3-yl)-3,4-dihydroquinolin-2(1H)-one]"
16,6.27,"Cc1cc(-c2ccc3c(c2COC2CCCC2)NC(=O)CC3)cn(C)c1=O [Compound 38, 8-((cyclopentyloxy)methyl)-7-(1,5-dimethyl-6-oxo-1,6-dihydropyridin-3-yl)-3,4-dihydroquinolin-2(1H)-one]"
17,6.57,"Cc1cc(-c2cc3c(c(COc4ccccc4)c2)NC(=O)CC3)cn(C)c1=O [Compound 44, 6-(1,5-dimethyl-6-oxo-1,6-dihydropyridin-3-yl)-8-(phenoxymethyl)-3,4-dihydroquinolin-2(1H)-one]"
18,6.04,"Cc1cc(-c2cc3c(c(COCC(F)(F)F)c2)NC(=O)CC3)cn(C)c1=O [Compound 46, 6-(1,5-dimethyl-6-oxo-1,6-dihydropyridin-3-yl)-8-((2,2,2-trifluoroethoxy)methyl)-3,4-dihydroquinolin-2(1H)-one]"
19,6.03,"Cc1cc(-c2cc3c(c(COC4CCOCC4)c2)NC(=O)CC3)cn(C)c1=O [Compound 47, 6-(1,5-dimethyl-6-oxo-1,6-dihydropyridin-3-yl)-8-(((tetrahydro-2H-pyran-4-yl)oxy)methyl)-3,4-dihydroquinolin-2(1H)-one]"
20,5.67,"Cc1cc(-c2cc3c(c(COC4CCCOC4)c2)NC(=O)CC3)cn(C)c1=O (stereo not drawn) [Compound 48a, 6-(1,5-dimethyl-6-oxo-1,6-dihydropyridin-3-yl)-8-(((tetrahydro-2H-pyran-3-yl)oxy)methyl)-3,4-dihydroquinolin-2(1H)-one]"
21,6.26,"Cc1cc(-c2cc3c(c(OCc4cnccn4)c2)NC(=O)CC3)cn(C)c1=O [Compound 52, 6-(1,5-dimethyl-6-oxo-1,6-dihydropyridin-3-yl)-8-(pyrazin-2-ylmethoxy)-3,4-dihydroquinolin-2(1H)-one]"

row,Compound,pIC50
1,"Cc1cc(-c2cc3c(c(COC4CCCC4)c2)NC(=O)CC3)cn(C)c1=O [Compound 21, 8-(cyclopentoxymethyl)-6-(1,5-dimethyl-6-oxo-3-pyridyl)-3,4-dihydro-1H-quinolin-2-one]",6.55
2,"Cc1cc(-c2ccc3c(c2COC2CCC2)NC(=O)CC3)cn(C)c1=O [Compound 39, 8-(cyclobutoxymethyl)-7-(1,5-dimethyl-6-oxo-1,6-dihydropyridin-3-yl)-3,4-dihydroquinolin-2(1H)-one]",5.01

# Same assay, conditions: inhibition of C-Myc mRNA, 4 hours treatment
row,pIC50,Compound
1,7.05,"Cc1cc(-c2cc3c(c(OC(C)c4cccnc4)c2)NC(=O)CC3)cn(C)c1=O (single isomer, unassigned) [Compound 92a, 6-(1,5-dimethyl-6-oxo-1,6-dihydropyridin-3-yl)-8-(1-(pyridin-3-yl)ethoxy)-3,4-dihydroquinolin-2(1H)-one]"
2,6.29,"Cc1cc(-c2cc3c(c(OC(C)c4cccnc4)c2)NC(=O)CC3)cn(C)c1=O (single isomer, unassigned) [Compound 92b, 6-(1,5-dimethyl-6-oxo-1,6-dihydropyridin-3-yl)-8-(1-(pyridin-3-yl)ethoxy)-3,4-dihydroquinolin-2(1H)-one]"
3,6.62,"Cc1cc(-c2cc3c(c(NC(C)c4ccccn4)c2)NC(=O)CC3)cn(C)c1=O (stereo not drawn) [Compound 23, 6-(1,5-dimethyl-6-oxo-3-pyridyl)-8-[1-(2-pyridyl)ethylamino]-3,4-dihydro-1H-quinolin-2-one]"
4,5.56,"Cc1cc(-c2cc3c(c(COC4CCCOC4)c2)NC(=O)CC3)cn(C)c1=O (stereo not drawn) [Compound 48b, 6-(1,5-dimethyl-6-oxo-1,6-dihydropyridin-3-yl)-8-(((tetrahydro-2H-pyran-3-yl)oxy)methyl)-3,4-dihydroquinolin-2(1H)-one]"
